The text below walks through data of ChEMBL document CHEMBL4033752, “Discovery of Potent and Selective Tricyclic Inhibitors of Bruton's Tyrosine Kinase with Improved Druglike Properties” (ACS Med Chem Lett, 2017).

Series [1] can be described thus: Total clearance in rat at 1 mg/kg, iv. The class given is ADME, organism-based. To be noted: in vivo.
The nature of series [2]: Oral bioavailability in rat at 5 mg/kg. The class given is ADME, organism-based. To be noted: in vivo.
Series [3] has as its target T1, Tyrosine-protein kinase BTK (Homo sapiens, UniProt Q06187).
Description: Inhibition of recombinant human full length His-tagged BTK expressed in baculovirus expression system by Z-LYTE assay
The target in series [4] is Tyrosine-protein kinase BTK (Mus musculus, UniProt P35991).
The test system of series [5] is Rattus norvegicus. The experiment in a line: Antiinflammatory activity in Lewis rat CIA model assessed as reduction in ankle thickness at 0.05 mg/kg measured between day 10 and day 17. The class given is functional, organism-based.
Series [6] is described as follows: Apparent permeability from apical side to basolateral side in MDCK cells at 10 uM after 3 hrs by LC-MS/MS analysis. The class given is ADME, cell-based, Canis lupus familiaris. As to conditions: dog.
For series [7] the following is noted: buffer, pH 7.4.
Description: Kinetic solubility of the compound at pH 7.4
The target in series [8] is T1, Tyrosine-protein kinase BTK. The source holds these as a separate data set.
Description: Inhibition of BTK in goat anti-human IgM F(ab')2-stimulated human whole blood assessed as suppression of BCR-induced CD69 expression on B cells preincubated for 1 hr followed by blood stimulation measured after 18 hrs by FACS analysis
Series [9] can be described thus: Total clearance in mouse. The class given is ADME, organism-based. To be noted: in vivo.
Series [10] can be described thus: Total clearance in dog. To be noted: in vivo. The class given is ADME, Canis lupus familiaris.
Series [11] in a line: Total clearance in cynomolgus monkey. To be noted: in vivo. The class given is ADME, Macaca fascicularis.
The subject of series [12] is Mus musculus. Description: Oral bioavailability in mouse at 5 mg/kg. The class given is ADME, organism-based. To be noted: in vivo.
Series [13] has as its system Mus musculus. The experiment in a line: Oral bioavailability in mouse at 100 mg/kg. The class given is ADME, organism-based. As to conditions: in vivo.
The subject of series [14] is Rattus norvegicus. Description: Oral bioavailability in rat at 100 mg/kg. The class given is ADME, organism-based. As to conditions: in vivo.
For a further series, the system named is Canis familiaris. The experiment in a line: Oral bioavailability in dog at 5 mg/kg. The class given is ADME, organism-based, Canis lupus familiaris. As to conditions: in vivo.
Series [15] deals with Rattus norvegicus. The experiment in a line: Antiinflammatory activity in Lewis rat CIA model assessed as reduction in ankle thickness administered via oral gavage as bid measured between day 10 and day 17. The class given is functional.

Each structure is given as a SMILES string. Calls of active or inactive are those of the source. The rule behind the calls is not given here.

T1 sequence (Q06187 whole entry): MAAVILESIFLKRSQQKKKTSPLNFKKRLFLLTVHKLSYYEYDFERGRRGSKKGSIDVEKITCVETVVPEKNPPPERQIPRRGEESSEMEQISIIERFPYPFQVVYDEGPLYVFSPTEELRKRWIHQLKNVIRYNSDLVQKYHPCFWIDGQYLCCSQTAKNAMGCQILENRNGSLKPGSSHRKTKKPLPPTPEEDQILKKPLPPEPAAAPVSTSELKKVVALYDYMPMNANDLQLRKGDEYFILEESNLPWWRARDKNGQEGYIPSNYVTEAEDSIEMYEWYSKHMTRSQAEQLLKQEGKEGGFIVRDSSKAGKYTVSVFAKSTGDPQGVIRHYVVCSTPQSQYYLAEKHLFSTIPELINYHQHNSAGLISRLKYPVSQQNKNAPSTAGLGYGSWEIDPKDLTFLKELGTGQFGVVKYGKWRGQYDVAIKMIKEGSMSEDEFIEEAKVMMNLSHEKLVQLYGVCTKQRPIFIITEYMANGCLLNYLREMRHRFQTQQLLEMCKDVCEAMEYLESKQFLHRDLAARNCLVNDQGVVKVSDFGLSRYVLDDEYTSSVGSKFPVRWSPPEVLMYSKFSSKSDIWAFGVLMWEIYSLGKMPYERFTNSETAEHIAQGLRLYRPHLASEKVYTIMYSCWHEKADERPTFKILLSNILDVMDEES
Tyrosine-protein kinase BTK (Mus musculus, UniProt P35991), sequence (P35991 whole entry): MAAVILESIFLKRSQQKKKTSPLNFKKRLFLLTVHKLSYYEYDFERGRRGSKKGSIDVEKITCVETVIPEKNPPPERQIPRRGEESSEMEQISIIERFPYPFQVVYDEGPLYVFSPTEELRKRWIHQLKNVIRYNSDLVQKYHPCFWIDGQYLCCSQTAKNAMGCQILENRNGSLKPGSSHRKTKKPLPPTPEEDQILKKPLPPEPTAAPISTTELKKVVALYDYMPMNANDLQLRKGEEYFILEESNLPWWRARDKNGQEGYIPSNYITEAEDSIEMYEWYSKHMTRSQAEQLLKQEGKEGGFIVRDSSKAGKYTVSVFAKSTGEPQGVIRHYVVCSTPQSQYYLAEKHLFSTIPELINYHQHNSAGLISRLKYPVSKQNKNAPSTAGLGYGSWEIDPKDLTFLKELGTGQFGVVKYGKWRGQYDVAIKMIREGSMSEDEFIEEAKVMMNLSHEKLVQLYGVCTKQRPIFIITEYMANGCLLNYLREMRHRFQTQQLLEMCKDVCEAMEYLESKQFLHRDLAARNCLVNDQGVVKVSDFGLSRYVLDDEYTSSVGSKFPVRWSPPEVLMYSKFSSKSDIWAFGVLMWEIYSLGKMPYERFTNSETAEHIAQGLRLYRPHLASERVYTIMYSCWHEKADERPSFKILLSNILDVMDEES

The clearance is a measure of how efficiently the substance is removed, as volume per time. The bioavailability is dose-corrected exposure relative to a reference, in per cent. As usually defined, the IC50 is the midpoint of a concentration-inhibition curve. Take `Cc1c(NC(=O)c2cc3c(s2)CCCC3)cccc1-c1cc(Nc2ccncn2)c(=O)n(C)c1`: the clearance in series [1] was found to be 2 mL/min/kg. The molecule also came in with a bioavailability in [2] of 45%. For the same molecule, the figures for the IC50 in series [3] and in [4] were 42 nM and 740 nM, respectively.

As to `C[C@@H]1C[C@H]2[C@@H]3CCC4=CC(=O)C=C[C@]4(C)[C@@]3(F)[C@@H](O)C[C@]2(C)[C@@]1(O)C(=O)CO`, the result with Rattus norvegicus [5] was Active.

As a reminder, the Papp A→B is the apparent permeability from the apical to the basolateral side of a cell layer. In series [1], `CN1CCN(c2ccc(Nc3cc(-c4cc(F)cc(N5CCn6c(cc7c6CCCC7)C5=O)c4CO)cn(C)c3=O)nc2)CC1` yielded a clearance of 37 mL/min/kg. Moreover, the bioavailability in series [2] came to 52%. In addition, the Papp A→B at 3 h, 10 µM in [6] is 1 to 10 ×10⁻⁶ cm/s. Moreover, in series [4], the IC50 was determined as 22 nM. In [7], this molecule came in with a Kinetic_solubility of 71 µM.

In series [1], `CN1CCN(c2ccc(Nc3cc(-c4cccc(N5CCc6c(sc7c6CC(C)(C)C7)C5=O)c4CO)cn(C)c3=O)nc2)CC1` registered a clearance of 29 mL/min/kg. In [2], the bioavailability was 37%.

For the molecule `Cn1cc(-c2cccc(N3CCn4c(cc5c4CCCC5)C3=O)c2CO)cc(Nc2ccc(N3CCN(C4COC4)CC3)cn2)c1=O`, the clearance in series [1] turned out to be 14 mL/min/kg. Besides, in [2], the bioavailability came to 46%. For the same molecule, the Papp A→B at 3 h, 10 µM in series [6] was in the range of 1 to 10 ×10⁻⁶ cm/s. Moreover, the IC50 in series [3] came out at 8 nM; in [4], 137 nM; in series [8], 69 nM. Also, the Kinetic_solubility in series [7] was 99 µM.

Regarding `Cn1cc(-c2cccc(N3CCc4c(sc5c4CC(C)(C)C5)C3=O)c2CO)cc(Nc2ccncn2)c1=O`, the clearance in series [9] amounted to 22 mL/min/kg; in series [10], 7 mL/min/kg; in series [11], 17 mL/min/kg. The F in the series with Mus musculus [12] was 77%; with Mus musculus [13], 45%; in the series on Rattus norvegicus [14] it was 23%; in the series with Canis familiaris, 27%. Also, the Activity result in the series on Rattus norvegicus [15] is “Dose-dependent effect”.

Molecule `CN1CCN(c2ccc(Nc3cc(-c4cccc(N5CCn6c(cc7c6CCCC7)C5=O)c4CO)cn(C)c3=O)nc2)CC1` displayed a clearance in series [1] of 40 mL/min/kg. In addition, the bioavailability in series [2] was found to be 20%. Moreover, in series [6], the Papp A→B at 3 h, 10 µM lay within 1 to 10 ×10⁻⁶ cm/s. The IC50 in series [3] came out at 4 nM; in series [4], 107 nM; in [8] it was 45 nM. In addition, the Kinetic_solubility in series [7] was 115 µM.

As for `Cn1cc(-c2cc(F)cc(N3CCn4c(cc5c4CCCC5)C3=O)c2CO)cc(Nc2ccc(N3CCN(C4COC4)CC3)cn2)c1=O`, the clearance in [1] stood at 20 mL/min/kg. The bioavailability in [2] stood at 27%. The Papp A→B at 3 h, 10 µM in series [6] is over 10 ×10⁻⁶ cm/s. In addition, in series [4], the IC50 turned out to be 10 nM. The Kinetic_solubility in [7] is 73 µM.

`Cn1cc(-c2cccc(N3CCc4cc(C(C)(C)C)ccc4C3=O)c2CO)cc(Nc2ccncn2)c1=O` yielded an IC50 in series [4] of 51 nM. The same molecule showed a Kinetic_solubility in series [7] of 2 µM.

In turn, `Cn1cc(-c2cccc(N3CCc4c(sc5c4CCCC5)C3=O)c2CO)cc(Nc2ccncn2)c1=O` had a bioavailability in series [2] of 90%.
